Measurements reported in patent US10174202B2, “Dyes with phosphinic acid, phosphinate, phosphonate and phosphonamidate substituents as auxochromic groups and methods for preparing the same” (Max-Planck-Gesellschaft zur Foerderung der Wissenschaften …, priority 2017, dated 2019).
Several values for one entry are separate records, joined by “and”; a condition that tells them apart may be missing. Identical values can stand only once. Counter-ions that a name gives are not always drawn. Marks after values point to notes of the source that are not given here.

Columns and labels:
Assay type in all cases: physicochemical
[1] = Absorption spectroscopy (UV/Vis)
Method: (§1) Absorption spectra were recorded with a Varian Cary 4000 UV-Vis double-beam spectrophotometer (Agilent Technologies, USA). For the determination of the absorption spectra, quartz cells with a 1 cm path length were used. Emission spectra and fluorescence quantum yield were obtained on a Quantaurus-QY Absolute PL quantum yield spectrometer C11347 (Hamamatsu Photonics, Japan) or on a Varian Cary Eclipse fluorescence spectrometer (Agilent Technologies, USA).

[2] = Emission spectra and fluorescence quantum yield
Method: as §1

[3] = Fluorescence lifetime
[4] = in acetonitrile, trifluoroacetate
[5] = in aq. PBS, pH 7.4, trifluoroacetate

Compound | Absorption max. ([1]; in acetonitrile) [nm] | ε at absorption max. ([1]; in acetonitrile) | Emission max. ([2]; in acetonitrile) [nm] | QY (fluorescence quantum yield, Φfl) ([2]; in acetonitrile) | Stokes shift ([2]; in acetonitrile) | fluorescence lifetime ([3]; in acetonitrile) | Absorption max. ([1]; in aq. PBS, pH 7.4) [nm] | ε at absorption max. ([1]; in aq. PBS, pH 7.4) | Emission max. ([2]; in aq. PBS, pH 7.4) [nm] | QY (fluorescence quantum yield, Φfl) ([2]; in aq. PBS, pH 7.4) | Stokes shift ([2]; in aq. PBS, pH 7.4) | fluorescence lifetime ([3]; in methanol + 1% v/v trifluoroacetic acid) | ε at absorption max. [1, 4] | ε at absorption max. [1, 5] | Absorption max. ([1]; in methanol) [nm] | ε at absorption max. ([1]; in methanol) [M⁻¹ cm⁻¹] | Emission max. ([2]; in methanol) [nm] | QY (fluorescence quantum yield, Φfl) ([2]; in methanol) | Stokes shift ([2]; in methanol) | fluorescence emission (in words) [2]
CCN(CC)c1ccc2c(P(=O)(OC)OC)c(-c3nc4ccccc4s3)c(=O)oc2c1 [Compound 1, Dimethyl [3-(benzo[d]thiazol-2-yl)-7-(diethylamino)-2-oxo-2H-chromen-4-yl]phosphonate] | 439 | 24000 M⁻¹ cm⁻¹ | 651 | 0.20 | 212^a nm | 2.55^a ns |  |  |  |  |  |  |  |  |  |  |  |  |  | 
COP(=O)(OC)c1c(-c2nc3ccccc3s2)c(=O)oc2cc(N3CC(O)C3)ccc12 [Compound 2, Dimethyl [3-(benzo[d]thiazol-2-yl)-7-(3-hydroxyazetidin-1-yl)-2-oxo-2H-chromen-4-yl]phosphonate] | 424 | 19000 M⁻¹ cm⁻¹ | 651 | 0.16 | 227^a nm | 1.99^a ns |  |  |  |  |  |  |  |  |  |  |  |  |  | 
CCN(CC)c1ccc2c(P(=O)(OC(C)(C)C)OC(C)(C)C)c(-c3nc4ccccc4s3)c(=O)oc2c1 [Compound 3, Di-tert-butyl [3-(benzo[d]thiazol-2-yl)-7-(diethylamino)-2-oxo-2H-chromen-4-yl]phosphonate] | 434 | 39000 M⁻¹ cm⁻¹ | 658 | 0.29 | 224^a nm | 2.49^a ns |  |  |  |  |  |  |  |  |  |  |  |  |  | 
CCN(CC)c1ccc2c(P(=O)(O)O)c(-c3nc4ccccc4s3)c(=O)oc2c1 [Compound 4, [3-(Benzo[d]thiazol-2-yl)-7-(diethylamino)-2-oxo-2H-chromen-4-yl]phosphonic acid] |  |  | 613 | 0.04 |  | 2.91 ns | 419 | 22000 M⁻¹ cm⁻¹ | 613 | 0.04 | 194^b nm | 1.85 ns and 0.93 ns |  |  |  |  |  |  |  | 
COP(=O)(OC)c1c2ccc(=[N+](C)C)cc-2oc2cc(N(C)C)ccc12.O=C([O-])C(F)(F)F [Compound 5, 9-(Dimethoxyphosphoryl)-3,6-bis(dimethylamino)-9H-xanthenylium trifluoroacetate] |  |  |  |  |  |  |  | 21400 M⁻¹ cm⁻¹ | 667 | 0.16 |  |  |  |  |  |  |  |  |  | 
CC(C)OP(=O)(OC(C)C)c1c2ccc(N(C)C)cc2[o+]c2cc(N(C)C)ccc12.O=C([O-])C(F)(F)F [Compound 6, 9-(Diisopropoxyphosphoryl)-3,6-bis(dimethylamino)-9H-xanthenylium trifluoroacetate] | 617 |  | 649 | 0.38 | 32 nm |  | 629 |  | 668 | 0.12 | 39 nm |  | 57638 M⁻¹ cm⁻¹ and 57600 M⁻¹ cm⁻¹ | 52254 M⁻¹ cm⁻¹ and 52300 M⁻¹ cm⁻¹ |  |  |  |  |  | 
COP(=O)(c1c2ccc(N(C)C)cc2[o+]c2cc(N(C)C)ccc12)N(C(C)C)C(C)C.O=C([O-])C(F)(F)F (stereo not shown) [Compound 7, 9-[(Diisopropylamino)(methoxy)phosphoryl]-3,6-bis(dimethylamino)-9H-xanthenylium trifluoroacetate] | 616 |  | 649 | 0.39 | 33 nm |  | 628 |  | 664 | 0.11 | 36 nm |  | 52455 M⁻¹ cm⁻¹ and 52500 M⁻¹ cm⁻¹ | 46051 M⁻¹ cm⁻¹ and 46100 M⁻¹ cm⁻¹ |  |  |  |  |  | 
CN(C)c1ccc2c(P(=O)(c3ccccc3)c3ccccc3)c3ccc(N(C)C)cc3[o+]c2c1.O=C([O-])C(F)(F)F [Compound 8, 3,6-Bis(dimethylamino)-9-(diphenylphosphoryl)-9H-xanthenylium trifluoroacetate] | 574 |  | 600 | 0.35 | 26 nm |  | 601 |  | 639 | 0.26 | 38 nm |  |  |  |  |  |  |  |  | 
C=CCOC(=O)CCCOP(=O)(OC)[c+]1c2ccc(N(C)C)cc2oc2cc(N(C)C)ccc21 (stereo not shown) [Compound 12, 9-[[4-(Allyloxy)-4-oxobutoxy](methoxy)phosphoryl]-3,6-bis(dimethylamino)-9H-xanthen-9-ylium chloride] | 621 | 42690 M⁻¹ cm⁻¹ and 42700 M⁻¹ cm⁻¹ | 653 | 0.32 | 32 nm |  | 632 | 29540 M⁻¹ cm⁻¹ | 669 | 0.17 | 37 nm |  |  |  |  |  |  |  |  | 
CN(C)c1ccc2c([PH](=O)[O-])c3ccc(N(C)C)cc3[o+]c2c1 [Compound 13, [3,6-Bis(dimethylamino)-9H-xanthenylium-9-yl]phosphinate] |  |  |  |  |  |  | 590 | 59543 M⁻¹ cm⁻¹ and 59400 M⁻¹ cm⁻¹ | 627 | 0.33 | 37^b nm |  |  |  |  |  |  |  |  | 
CCOP(=O)(CC(=O)[O-])c1c2ccc(N(C)C)cc2[o+]c2cc(N(C)C)ccc12 (stereo not shown) [Compound 14, 2-[[3,6-Bis(dimethylamino)-9H-xanthenylium-9-yl](ethoxy)phosphoryl]acetate] | 625 | 22599 M⁻¹ cm⁻¹ | 656 | 0.32 | 31 nm |  | 631 | 47622 M⁻¹ cm⁻¹ | 667 | 0.22 | 36 nm |  |  |  |  |  |  |  |  | 
CN(C)c1ccc2c(P(=O)([O-])CCC(=O)O)c3ccc(=[N+](C)C)cc-3oc2c1 [Compound 15, [3,6-Bis(dimethylamino)-9H-xanthenyhum-9-yl](2-carboxyethyl)phosphinate] |  |  |  |  |  |  | 598 | 52094 M⁻¹ cm⁻¹ and 52100 M⁻¹ cm⁻¹ | 636 | 0.29 | 38^b nm |  |  |  |  |  |  |  |  | 
COP(=O)(C1=c2cc3c4c(c2Oc2c1cc1c5c2CCCN5CCC1)CCC[N+]=4CCC3)N(C(C)C)C(C)C (stereo not shown) [Compound 17, 9-[(Diisopropylamino)(methoxy)phosphoryl]-1H,2H,3H5H,6H,7H,11H,12H,13H,15H,16H,17H-pyrido[3,2,1-ij]quinolizino[1′,9′:6,7,8]chromeno[2,3-f]quinolinium trifluoroacetate] | 649 |  | 679 | 0.25 | 30 nm |  | 661 |  | 696 | 0.11 | 35 nm |  | 52455 M⁻¹ cm⁻¹ and 53000 M⁻¹ cm⁻¹ | 46976 M⁻¹ cm⁻¹ and 47000 M⁻¹ cm⁻¹ |  |  |  |  |  | 
COP(=O)([O-])C1=c2cc3c4c(c2Oc2c1cc1c5c2CCCN5CCC1)CCC[N+]=4CCC3 [Compound 18, Methyl (1H,2H,3H,5H,6H,7H,11H,12H,13H,15H,16H,17H-pyrido[3,2,1-ij]quinolizino[1′,9′:6,7,8]chromeno[2,3-f]quinolinium-9-yl)phosphonate] | 596 | 49565 M⁻¹ cm⁻¹ and 49600 M⁻¹ cm⁻¹ | 623 | 0.85 | 27 nm |  | 630 | 52286 M⁻¹ cm⁻¹ and 52300 M⁻¹ cm⁻¹ | 666 | 0.17 | 36 nm |  |  |  |  |  |  |  |  | 
CCOP(=O)(C1=c2cc3c4c(c2Oc2c1cc1c5c2CCCN5CCC1)CCC[N+]=4CCC3)N(C)CCC(=O)O (stereo not shown) [Compound 19, 9-[[(2-Carboxyethyl)(methyl)amino](ethoxy)phosphoryl]-1H,2H,3H,5H,6H,7H,11H,12H,13H,15H,16H,17H-pyrido[3,2,1-ij]quinolizino[1′,9′:6,7,8]chromeno[2,3-f]quinolinium trifluoroacetate] | 648 | 29373 M⁻¹ cm⁻¹ | 682 | 0.19 | 34 nm |  | 659 | 37214 M⁻¹ cm⁻¹ | 705 | 0.11 | 46 nm |  |  |  |  |  |  |  |  | 
COP(=O)(OC)c1c2ccc(N(C)C)cc2[n+](C)c2cc(N(C)C)ccc12 [Compound 22, 9-(Dimethoxyphosphoryl)-3,6-bis(dimethylamino)-10-methylacridinium trifluoroacetate] |  |  |  |  |  |  |  |  |  |  |  |  |  |  | 560 | 43000 | 620 | 0.95 | 60^e nm | 
CN(C)c1ccc2c(c1)-c1cccc3c(N(C)C)ccc(c13)C2.[O-][Cl+3]([O-])([O-])O [Compound 28d] |  |  |  |  |  |  |  |  |  |  |  |  |  |  | 646 | 23000 | 673 | 0.25 |  | 
CC1=CC(C)=[N+]2C1=C(P(=O)(OC(C)C)OC(C)C)c1c(C)cc(C)n1[B-]2(F)F [Compound 29, 10-(Diisopropoxyphosphoryl)-5,5-difluoro-1,3,7,9-tetramethyl-5H-dipyrrolo[1,2-c:2′,1′-f][1,3,2]diazaborinin-4-ium-5-uide] | 574 | 33000 M⁻¹ cm⁻¹ | 647 | < 0.002 | 73^a nm |  |  |  |  |  |  |  |  |  |  |  |  |  |  | no emission (quencher)
